Among the data in patent US9512459B2 (priority 2011, dated 2016) are Vmax and Km values, retold here.

Where two headings read alike, the source gives them in different places.

By Km is commonly meant the concentration of substrate that gives half-maximal velocity.

Settings in all cases: crude enzyme, glucose 1-40 mM, pH 6.5, DCIP/PMS
Assay [1] concerns the target Sclerotinia sclerotiorum glucose dehydrogenase (FAD-GDH) Ssc-n2 variant N191K/S529G/Y70F, SEQ ID NO: 1 (Sclerotinia sclerotiorum, UniProt A7F9L2, N191K/S529G/Y70F). The method, then:
(§1) The transformant BL21 (DE3) expressing each mutated enzyme was precultured. The transformant was inoculated in an amount of 1% with respect to 60 ml of a medium A using a 300-ml baffled flask and shake-cultured under conditions involving 20° C., 28 hours, and 125 rpm. After collection of 50 ml of the medium, the bacterial cells were suspended by the addition of BugBuster (registered trademark) protein extraction reagent (Novagen/Merck KGaA) at a ratio of 5 ml per g of wet cells and incubated at room temperature for 15 minutes with gentle shaking. Insoluble fractions were removed by centrifugation (15 Krpm, 4° C., 20 minutes). Then, the obtained supernatant was dialyzed overnight at 4° C. against a 20 mM potassium phosphate buffer solution (pH 6.5). After the completion of the dialysis, the dialysate was centrifuged, and the supernatant was used as a crude enzyme preparation. Insoluble fractions were suspended in a 20 mM potassium phosphate buffer solution (pH 6.5) at a ratio of 1 ml per 2 ml of the suspension containing the insoluble fractions.
(§2) A small-scale expression system was used for some multiple-mutated enzymes. The transformant BL21 (DE3) expressing each mutated enzyme was precultured, and the transformant was inoculated in an amount of 1 vol % with respect to 3 ml of a medium A. The bacterial cells were shake-cultured at 37° C. for 4 hours and then shake-cultured at 20° C. for 20 hours. After the culture, 2 ml of the medium was collected, then suspended by the addition of 400 μl of BugBuster (registered trademark), and then shaken at room temperature for 15 minutes. Then, the suspension was centrifuged (15000 rpm, 4° C., 20 minutes), and the obtained supernatant was used as a crude enzyme preparation.
(§3) The GDH activity was measured in a DCIP (0.3 mM)/PMS (0.6 mM) system using a 20 mM potassium phosphate buffer solution (pH 6.5) as a buffer solution and glucose (Glc; 1, 2, 4, 10, 20, and 40 mM) and xylose (Xyl; 4 and 40 mM) as substrates.
(§4) The numeric values in the tables represent a mean of several data about specific activity (U/mg) and productivity (U/L) obtained under the same conditions with 40 mM glucose as a substrate. The obtained crude enzyme preparation was used to observe the correlation between the concentration of the substrate (glucose; 1, 2, 4, 10, 20, and 40 mM) and the activity. The obtained Michaelis-Menten constant (Km value) and apparent maximum activity (Vmax) were determined from a saturation curve determined therefrom.

The target in assay [2] is Sclerotinia sclerotiorum glucose dehydrogenase (FAD-GDH) Ssc-n2 variant N191K/S529G/G69H, SEQ ID NO: 1 (Sclerotinia sclerotiorum, UniProt A7F9L2, G69H/N191K/S529G). The method, then:
as §1, §2, §3, §4

Assay [3] concerns the target Sclerotinia sclerotiorum glucose dehydrogenase (FAD-GDH) Ssc-n2 variant N191K/S529G, SEQ ID NO: 1 (Sclerotinia sclerotiorum, UniProt A7F9L2, N191K/S529G). The method, then:
as §1, §2, §3, §4

The target in assay [4] is Sclerotinia sclerotiorum glucose dehydrogenase (FAD-GDH) Ssc-n2 variant N191K/S529G/G69A, SEQ ID NO: 1 (Sclerotinia sclerotiorum, UniProt A7F9L2, G69A/N191K/S529G). The method, then:
as §1, §2, §3, §4

For assay [5], the target named is Sclerotinia sclerotiorum glucose dehydrogenase (FAD-GDH) Ssc-n2 variant N191K/S529G/G69N, SEQ ID NO: 1 (Sclerotinia sclerotiorum, UniProt A7F9L2, G69N/N191K/S529G). The method, then: as §1, §2, §3, §4
For assay [6], the target named is Sclerotinia sclerotiorum glucose dehydrogenase (FAD-GDH) Ssc-n1, wild type, SEQ ID NO: 1 (16 N-terminal residues deleted, Ser17 substituted by Met) (Sclerotinia sclerotiorum, UniProt A7F9L2). Nature of the assay: GDH activity vs glucose, saturation curve (Ssc-n1). The format is biochemical. The method, then:
as §1, §2, §3, §4

Assay [7] has as its target T1, Aspergillus niger glucose dehydrogenase (FAD-GDH) Ang-n2, SEQ ID NO: 2 (26 N-terminal residues deleted, Met-Thr-Asp-Ser-Thr-Leu-Asn added) (Aspergillus niger, UniProt A2QWL1).
T1 construct: pET30c, E. coli BL21(DE3), crude extract or purified (T9)
T1 sequence (A2QWL1 27-588): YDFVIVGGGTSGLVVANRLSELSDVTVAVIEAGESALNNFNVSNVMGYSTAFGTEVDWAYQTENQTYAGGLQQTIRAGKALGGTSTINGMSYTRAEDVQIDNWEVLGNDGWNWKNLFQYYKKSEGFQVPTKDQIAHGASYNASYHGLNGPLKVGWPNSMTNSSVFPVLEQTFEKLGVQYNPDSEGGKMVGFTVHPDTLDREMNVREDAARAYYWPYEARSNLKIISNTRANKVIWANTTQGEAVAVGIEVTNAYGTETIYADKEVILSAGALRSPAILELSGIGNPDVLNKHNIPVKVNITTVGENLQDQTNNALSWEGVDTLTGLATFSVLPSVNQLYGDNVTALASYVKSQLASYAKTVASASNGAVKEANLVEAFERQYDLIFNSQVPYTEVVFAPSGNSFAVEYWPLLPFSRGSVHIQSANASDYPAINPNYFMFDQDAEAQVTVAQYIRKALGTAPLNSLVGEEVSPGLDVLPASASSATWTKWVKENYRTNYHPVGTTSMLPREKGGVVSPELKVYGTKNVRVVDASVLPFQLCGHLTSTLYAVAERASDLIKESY
Briefly: GDH activity vs glucose, saturation curve (Ang-n2). The format is biochemical. The method, then:
as §1, with “After the completion of the dialysis, the dialysate was centrifuged, and the supernatant was used as a crude enzyme preparation. Insoluble fractions were suspended in a 20 mM potassium phosphate buffer solution (pH 6.5) at a ratio of 1 ml per 2 ml of the suspension containing the insoluble fractions.” left out
as §3
The numeric values in the tables represent a mean of several data about specific activity (U/mg) and productivity (U/L) obtained under the same conditions with 40 mM glucose as a substrate. […] The obtained Michaelis-Menten constant (Km value) and apparent maximum activity (Vmax) were determined from a saturation curve determined therefrom.

In the case of `OC[C@H]1OC(O)[C@H](O)[C@@H](O)[C@@H]1O` (stereo partly shown) [glucose], the Vmax is listed as 9.0 U/mg protein in assay [1] (3 ml culture); 23.8 U/mg protein in assay [1] (60 ml culture); 11.1 U/mg protein in assay [2] (3 ml culture); 6.9 U/mg protein in assay [2] (60 ml culture); 16.9 U/mg protein in assay [3] (3 ml culture); 38.2 U/mg protein in assay [3] (60 ml culture). In addition, the Vmax was determined as 15.8 U/mg protein in assay [4] (3 ml culture); 26.4 U/mg protein in assay [4] (60 ml culture); 11.5 U/mg protein in assay [5] (3 ml culture); 13.9 U/mg protein in assay [5] (60 ml culture); 2.2 U/mg protein in assay [6] (3 ml culture); 0.7 U/mg protein in assay [6] (60 ml culture). Also, the Vmax in assay [7] (3 ml culture (Table 8)) and in assay [7] (60 ml culture) was 1.5 U/mg protein in each case. For the same compound, the Km in assay [6] (3 ml culture) amounted to 14.3 mM; in assay [6] (60 ml culture), 16.6 mM.
